Results on five molecules are retold here after patent US11104661B1, “Inhibiting human integrin (α-4) (β-7)” (Morphic Therapeutic, Inc., priority 2019, dated 2021).

Molecules are shown by their SMILES. Bounds are passed on as bounds.

The target of test [1] is T1, α4β7 (Homo sapiens, UniProt P13612+P26010).
T1 construct: endogenous in cells; host or cells: RPMI 8866 cells
T1 sequence (P13612 34-1032): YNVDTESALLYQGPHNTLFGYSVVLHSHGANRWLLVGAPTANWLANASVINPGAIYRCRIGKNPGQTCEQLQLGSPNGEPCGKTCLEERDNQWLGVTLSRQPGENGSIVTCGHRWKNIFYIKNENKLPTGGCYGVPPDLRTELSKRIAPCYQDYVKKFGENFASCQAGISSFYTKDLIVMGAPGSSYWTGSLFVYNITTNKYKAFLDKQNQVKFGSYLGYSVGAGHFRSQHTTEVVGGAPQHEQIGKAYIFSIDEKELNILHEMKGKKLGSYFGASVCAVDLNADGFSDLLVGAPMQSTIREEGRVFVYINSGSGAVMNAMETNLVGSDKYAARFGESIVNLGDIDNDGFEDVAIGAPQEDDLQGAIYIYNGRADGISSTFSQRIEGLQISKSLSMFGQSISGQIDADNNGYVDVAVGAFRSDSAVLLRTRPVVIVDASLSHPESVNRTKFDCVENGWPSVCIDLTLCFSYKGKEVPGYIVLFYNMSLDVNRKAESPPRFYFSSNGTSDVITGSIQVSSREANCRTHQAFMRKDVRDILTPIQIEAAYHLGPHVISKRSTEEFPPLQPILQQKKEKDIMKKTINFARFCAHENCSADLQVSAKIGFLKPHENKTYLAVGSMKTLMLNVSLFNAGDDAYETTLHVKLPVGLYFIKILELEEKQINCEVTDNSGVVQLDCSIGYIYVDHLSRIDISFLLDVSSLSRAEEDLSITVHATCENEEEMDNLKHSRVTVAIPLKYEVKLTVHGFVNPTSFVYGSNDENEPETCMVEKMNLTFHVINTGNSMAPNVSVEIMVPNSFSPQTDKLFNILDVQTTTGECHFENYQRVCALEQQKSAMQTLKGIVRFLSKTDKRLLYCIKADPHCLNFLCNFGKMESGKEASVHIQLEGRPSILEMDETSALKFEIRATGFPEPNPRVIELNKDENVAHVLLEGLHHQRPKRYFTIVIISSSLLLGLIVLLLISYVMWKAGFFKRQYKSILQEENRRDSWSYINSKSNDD
T1 sequence (P26010 20-798): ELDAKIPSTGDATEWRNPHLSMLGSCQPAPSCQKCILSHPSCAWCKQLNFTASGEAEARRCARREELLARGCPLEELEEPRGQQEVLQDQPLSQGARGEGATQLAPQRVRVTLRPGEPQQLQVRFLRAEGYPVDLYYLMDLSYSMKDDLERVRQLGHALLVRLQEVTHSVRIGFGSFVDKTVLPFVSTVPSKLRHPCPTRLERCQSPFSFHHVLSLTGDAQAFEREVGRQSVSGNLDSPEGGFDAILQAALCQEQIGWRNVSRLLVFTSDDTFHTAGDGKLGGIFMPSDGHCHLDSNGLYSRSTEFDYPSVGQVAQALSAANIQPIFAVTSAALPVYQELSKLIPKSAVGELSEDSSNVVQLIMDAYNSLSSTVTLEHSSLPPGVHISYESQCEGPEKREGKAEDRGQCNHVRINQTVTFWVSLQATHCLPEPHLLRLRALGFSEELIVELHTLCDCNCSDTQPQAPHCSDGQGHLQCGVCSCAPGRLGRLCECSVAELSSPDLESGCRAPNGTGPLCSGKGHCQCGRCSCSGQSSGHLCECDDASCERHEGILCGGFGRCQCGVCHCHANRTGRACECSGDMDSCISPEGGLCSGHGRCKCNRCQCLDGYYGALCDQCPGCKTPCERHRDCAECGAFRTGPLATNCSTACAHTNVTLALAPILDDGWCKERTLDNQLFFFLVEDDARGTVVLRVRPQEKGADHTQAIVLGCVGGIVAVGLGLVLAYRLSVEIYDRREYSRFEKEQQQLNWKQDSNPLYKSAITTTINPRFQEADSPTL
The test can be described thus: Cell-based MAdCAM-1 ligand binding assay (LBA) on RPMI 8866 cells (Example 6). Particulars: MAdCAM-1-Fc Dylight 650, 3 mM manganese chloride, flow cytometry, Table 4 comparative compounds, read-out: LB Assay (Example 6). The source says:
Compounds of Formula (I) were further evaluated using a Ligand binding assay (LBA) to examine compound potency of free ligand binding to receptors expressed on cells. The MAdCAM ligand binding assay uses flow cytometry to measure the binding of fluorescently-labeled MAdCAM-1-Fc to RPMI 8866 cells in the presence of Mn++. This assay assesses the binding of compounds to native full-length receptors on the cell surface. […] Ligand binding assays (LBA) are used to examine compound potency and selectivity of free ligand binding to receptors expressed on cells.
(§1) Three in vitro assays were used to examine the α4β7 mechanistic process used by cells: 1) ligand:receptor affinity, 2) the avidity of those interactions on a cell's surface, and 3) how those interactions fare under an imposing force. In Example 5, a Fluorescence Polarization (FP) assay is used to measure compound activity through binding competition with the fluorescein-labeled peptide. In Example 6, the potency of compounds against α4β7 is measured in the cell-based ligand binding assay (LBA), using RPMI 8866 cells incubated with the compound samples in competition with soluble MAdCAM-1 ligand. In Example 7, activity of compounds is evaluated in a cell adhesion assay that mechanistically tests what occurs in vivo when trafficking cells utilize α4β7 to adhere to MAdCAM-1 expressing HEVs of the gut during the extravasation process. In the cell adhesion assay of Example 7, a MAdCAMI1-(Fc) is coated on plastic, and α4β7 expressing cells (RPMI-8866) are allowed to adhere to the coated surface in the presence of the test compounds. Next, the force of washing with buffer is applied to cells thereby testing the strength of that adhesion. Unattached cells are removed and the remaining adherent cells are quantified.
5 ul of 33 nM MAdCAM-1-Fc fluorescently labeled with Dylight 650 in 50 mM HEPES pH 7.3, 150 mM sodium chloride, and 1% bovine serum albumin was added to the cells. The samples were incubated for 45 minutes at room temperature, fixed with 0.8% formaldehyde for 30 minutes at room temperature, and washed with 50 mM Tris pH 7.5, 150 mM NaCl, 1 mM EDTA, and 1% bovine serum albumin. Fluorescence intensity for each cell was measured via flow cytometry. Dead cells were excluded from further analysis based on staining with the 780 fixable viability dye. Median fluorescence intensity for Dylight 650 was determined for each sample and concentration-response curves were analyzed for IC50 values using 4-parameter non-linear regression analysis.
Background: In flow cytometry, cells or beads pass a laser one at a time.

In test [2] the target is T1, α4β7. The test can be described thus: Cell adhesion assay, RPMI8866 cells on MAdCAM coated plates (Example 7). In kind it is cell-based. Particulars: RPMI8866 cells adhering to recombinant human MAdCAM, read-out: CA Assay (Example 7). Here is the method: as §1
Example 7 describes a cell adhesion assay.
To each well of a 96 well plate, 100 ug of recombinant human MAdCAM in 100 ul PBS is added and incubated overnight at 4° C. After incubation MAdCAM is removed by aspiration and 200 ul of PBS+1% BSA is added to block the plate for 2 hours at 37° C. and 5% CO2. During this incubation dilution curves of compound are made in 100% DMSO in 96 well V bottom plates. 1.75 ul of diluted compounds are then transferred to a new 96 well U bottom plate containing 20 ul of assay media (phosphate free DMEM+25 mM HEPES+1% BSA). To this an additional 155 ul of assay media is added with mixing by pipetting up and down. This mixture is allowed to incubate for 15 minutes at 37° C. and 5% CO2. After incubation 175 ul of assay media containing 2e6/mL RPMI8866 cells is added to compound containing wells without mixing and plate is allowed to incubate for another 15 minutes at 37° C. and 5% CO2. During this incubation MAdCAM coated plates are removed from incubator and washed twice with 200 ul PBS+0.1% BSA. […] This plate is then incubated at 37° C. and 5% CO2 for 1 hour. After incubation plates are washed twice with 200 ul and once with 50 ul of phenol free RPMI+1% BSA. A final 50 ul of phenol free RPMI+1% BSA is added to wells after last wash. Next 50 ul of Promega cell titer glow is added to the wells. Plate is incubated on shaker for 2 minutes at 200 RPM followed by another 8 minutes off shaker before having the luminescence read on a Biotek Citation 5 plate reader. Raw data is converted to % inhibition compared to bottom of curve and analyzed using a 4-parameter non linear curve in Prism to determine IC50 and IC90.

For the next test, the target named is T2, integrin α4β7 (Homo sapiens, UniProt P13612+P26010).
T2 sequence (P13612 35-977 limits assumed): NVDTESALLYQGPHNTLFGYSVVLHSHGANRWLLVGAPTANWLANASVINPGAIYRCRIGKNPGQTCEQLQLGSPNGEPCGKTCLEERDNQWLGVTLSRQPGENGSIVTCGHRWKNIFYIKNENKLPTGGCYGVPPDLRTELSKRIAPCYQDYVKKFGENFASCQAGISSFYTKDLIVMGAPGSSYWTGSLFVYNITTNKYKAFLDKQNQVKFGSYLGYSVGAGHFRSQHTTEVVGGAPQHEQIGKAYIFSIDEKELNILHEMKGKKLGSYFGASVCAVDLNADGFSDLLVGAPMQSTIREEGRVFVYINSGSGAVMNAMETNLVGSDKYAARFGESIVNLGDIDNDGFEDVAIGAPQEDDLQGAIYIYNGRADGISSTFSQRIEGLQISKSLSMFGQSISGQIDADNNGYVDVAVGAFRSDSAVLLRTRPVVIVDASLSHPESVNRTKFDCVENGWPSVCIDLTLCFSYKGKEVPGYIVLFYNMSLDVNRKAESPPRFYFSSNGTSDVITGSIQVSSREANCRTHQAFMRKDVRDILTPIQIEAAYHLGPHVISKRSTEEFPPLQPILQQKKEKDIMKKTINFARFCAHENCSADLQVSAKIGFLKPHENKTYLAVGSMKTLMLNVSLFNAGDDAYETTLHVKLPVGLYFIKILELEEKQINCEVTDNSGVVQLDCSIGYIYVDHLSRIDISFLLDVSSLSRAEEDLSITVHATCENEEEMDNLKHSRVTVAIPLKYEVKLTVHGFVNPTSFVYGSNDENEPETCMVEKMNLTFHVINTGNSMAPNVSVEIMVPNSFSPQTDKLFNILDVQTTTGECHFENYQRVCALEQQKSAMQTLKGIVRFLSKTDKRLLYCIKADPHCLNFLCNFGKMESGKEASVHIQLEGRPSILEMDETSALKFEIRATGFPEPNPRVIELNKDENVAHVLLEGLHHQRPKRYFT
T2 sequence (P26010 20-723 limits assumed): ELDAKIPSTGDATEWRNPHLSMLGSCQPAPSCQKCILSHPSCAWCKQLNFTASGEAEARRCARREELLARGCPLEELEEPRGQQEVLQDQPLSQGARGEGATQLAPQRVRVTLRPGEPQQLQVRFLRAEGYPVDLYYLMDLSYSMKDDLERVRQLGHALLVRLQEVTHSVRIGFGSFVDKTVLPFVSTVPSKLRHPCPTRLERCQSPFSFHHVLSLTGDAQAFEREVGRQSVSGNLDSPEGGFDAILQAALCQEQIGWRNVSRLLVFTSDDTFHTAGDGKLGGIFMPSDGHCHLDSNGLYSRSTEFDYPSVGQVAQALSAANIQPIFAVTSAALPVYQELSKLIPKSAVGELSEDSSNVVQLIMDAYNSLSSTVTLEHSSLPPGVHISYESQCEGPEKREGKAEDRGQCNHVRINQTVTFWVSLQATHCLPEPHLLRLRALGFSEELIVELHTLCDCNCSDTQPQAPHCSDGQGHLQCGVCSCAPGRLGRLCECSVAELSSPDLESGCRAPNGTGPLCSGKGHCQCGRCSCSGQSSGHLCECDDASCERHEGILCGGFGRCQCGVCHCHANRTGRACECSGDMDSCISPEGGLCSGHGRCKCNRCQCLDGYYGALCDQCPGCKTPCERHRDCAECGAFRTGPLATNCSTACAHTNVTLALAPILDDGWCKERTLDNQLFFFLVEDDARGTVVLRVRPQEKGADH
The test can be described thus: Fluorescence polarization (FP) assay for α4β7 binding (Example 5). Particulars: competition with fluorescein-labeled peptide, 6.5 nM integrin α4β7, 2 mM manganese chloride; Table 4 comparative compounds. Here is the method: Compounds of Formula (I) were evaluated using a fluorescent polarization (FP) assay. FP assays are used to evaluate potency of compounds on purified protein. The FP assays consists of measuring purified integrin αβ heterodimer ecto domains or headpiece binding to surrogate or truncated ligands.
as §1
Fluorescence Polarization (FP) assays were used to measure compound activity through binding competition with the fluorescein-labeled peptide […]{Lys(FITC)}. In the assay, 6.5 nM of integrin α4β7 was incubated with the test compound in 2 mM manganese chloride, 0.1 mM calcium chloride, 20 mM HEPES buffer at pH 7.3, 150 mM sodium chloride, 0.01% Triton X-100, 2% DMSO, and 3 nM of the fluorescein-labeled peptide. Running the assays in 384-well plates, the integrin protein was pre-incubated with the test compounds for 15 minutes at 22° C. before the fluorescein-labeled peptide was added. After the fluorescein-labeled peptide was added, the assay was incubated at 22° C. for 1 hour and fluorescence polarization was measured. IC50 values were determined by nonlinear regression, four-parameter curve fitting.
A general note: Fluorescence polarisation rises when a labelled molecule tumbles more slowly, as on binding a larger partner.

Consider `Cc1ccccc1-c1cc([C@H](CC(=O)O)NC(=O)[C@H](CC(C)C)n2ccc(C(F)(F)F)cc2=O)cnc1C`, for which the IC50 at α4β7 [1] is 10 to 500 nM; at α4β7 [2] (Table 4 comparative compounds), greater than 100 nM. Molecule `Cc1cccc(C)c1-c1cncc([C@H](CC(=O)O)NC(=O)[C@@H](CC(C)C)n2ccccc2=O)c1` had an IC50 on integrin α4β7 of 10 to 500 nM. In the case of `Cc1cccc(C)c1-c1cncc([C@@H](CC(=O)O)NC(=O)[C@H](CC(C)C)n2ccccc2=O)c1`, at integrin α4β7, the IC50 was greater than 500 nM. The molecule `Cc1cccc(C)c1-c1cncc([C@@H](CC(=O)O)NC(=O)[C@@H](CC(C)C)n2ccccc2=O)c1` yielded an IC50 at integrin α4β7 greater than 500 nM. With `COC1CN(CCc2cn([C@H](CC(C)C)C(=O)N[C@@H](CC(=O)O)c3cc(-c4c(C)cccc4C)cc(Cl)c3F)c(=O)cc2C(F)(F)F)C1` [W-P2, (3S)-3-(5-chloro-4-fluoro-2′,6′-dimethyl-[1,1′-biphenyl]-3-yl)-3-(2-(5-(2-(3-methoxyazetidin-1-yl)ethyl)-2-oxo-4-(trifluoromethyl)pyridin-1(2H)-yl)-4-methylpentanamido)propanoic acid], the IC50 at α4β7 [2] (Table 3) is less than 5 nM.
